Test results taken from patent publication US8729009B2, “Lysine compounds and their use in site- and chemoselective modification of peptides and proteins” (Stichting Het Nederlands Kanker Instituut, priority 2009, dated 2014).

Experiment: Solubility of the thiolysine-modified peptides in the ligation buffer
Assay type: physicochemical
Conditions: Tris-HCl pH 7.5 buffer used during the ligation reaction
Description: This is not surprising as this peptide is made up for ≈50% of hydrophobic amino acids and contains 3 beta-strands in the native PCNA protein (see Supporting Information). Besides performing the ubiquitin ligations with an excess of peptide (rxn 1-3 and 6-16, FIGS. 6 and 7), it was also observed that the use of (roughly) equimolar amounts of ubiquitin and peptide (rxn 4, 5 FIG. 6 and FIGS. 8-10) allowed ligation. In order to be able to develop the here presented ligation methodology for solid phase peptide synthesis, with the peptide being anchored to the solid support, it is important to fully consume all peptide. In order to confirm that a polar organic solvent is compatible with the reaction conditions, we repeated the ubiquitin ligation of the H2B peptide TKAVTK*YTSSK, using a DMSO stock of the peptide, up to a final concentration of 10% DMSO (rxn 14-16, FIG. 7).

GDAWISC*AK*DGVKFSASGELGNGNIKLSQ [Peptide 1]
solubility: only soluble in polar organic solvents such as DMF and DMSO
